Data: patent EP4603105A1, “PHARMACEUTICAL COMPOSITION CONTAINING CYCLIC COMPOUND HAVING SELECTIVE KRAS INHIBITORY EFFECT AGAINST HRAS AND NRAS” (CHUGAI SEIYAKU KABUSHIKI KAISHA, priority 2022, dated 2024)
Where a SMILES comes first, the peptide text is derived from it. Bridges are numbered along the chain shown (N, C = ends). [ ]: non-standard residue; d: D form. The star is where a group is joined. hPhe(3-Cl-4-CF3) = N[C@@H](CCc1ccc(C(F)(F)F)c(Cl)c1)C(=O)O; NPrPhe(4-CF3) = CCCN[C@@H](Cc1ccc(C(F)(F)F)cc1)C(=O)O; NMeGly(cPent) = CN[C@H](C(=O)O)C1CCCC1; NMeD = CN[C@@H](CC(=O)O)C(=O)O; NMeL = CN[C@@H](CC(C)C)C(=O)O; Morpholide = C1CN(*)CCO1; Ac5c = NC1(C(=O)O)CCCC1; Aze = O=C(O)[C@@H]1CCN1; NcPrGly = O=C(O)CNC1CC1; Sar = CNCC(=O)O

How the values were obtained:
[1] = target: HRAS wild-type protein (Homo sapiens, UniProt P01112); assay: Binding to HRAS by surface plasmon resonance (SPR), KD and KD ratio to KRAS
Outline: (§1)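 Compound binding is evaluated by SPR single-cycle kinetics, with concentrations added intermittently from low to high for 75 s each. Target surfaces carry GDP-loaded biotinylated Avi-RAS at about 100–300 RU, regenerated after each cycle; temperature 30°C. A 1:1 binding model gives KD.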

[2] = test system: human lung cancer strain NCI-H441; assay type: cell-based
Outline: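 Proliferation was scored by […] measured after the reagent was added to cultures kept at 37°C in 5% carbon dioxide.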

[3] = target: GDP-bound NRAS wild-type protein (Homo sapiens, UniProt P01111); assay: Binding to NRAS by surface plasmon resonance (SPR), KD and KD ratio to KRAS
Outline: as §1

[4] = ratio of KD for HRAS wild-type protein to KD for KRAS
[5] = ratio of KD for GDP-bound NRAS wild-type protein to KD for KRAS
[6] = ratio of the KD value with respect to HRAS wild-type protein to the KD value with respect to KRAS
[7] = ratio of the KD value with respect to GDP-bound NRAS wild-type protein to the KD value with respect to KRAS
[8] = ratio of KD value for HRAS wild-type protein to KD value for KRAS (SPR)
[9] = ratio of KD value for GDP-bound NRAS wild-type protein to KD value for KRAS (SPR)
[10] = ratio of KD with respect to HRAS wild-type protein to KD with respect to KRAS
[11] = ratio of KD with respect to GDP-bound NRAS wild-type protein to KD with respect to KRAS

Chain of GDP-bound NRAS wild-type protein (P01111 whole entry): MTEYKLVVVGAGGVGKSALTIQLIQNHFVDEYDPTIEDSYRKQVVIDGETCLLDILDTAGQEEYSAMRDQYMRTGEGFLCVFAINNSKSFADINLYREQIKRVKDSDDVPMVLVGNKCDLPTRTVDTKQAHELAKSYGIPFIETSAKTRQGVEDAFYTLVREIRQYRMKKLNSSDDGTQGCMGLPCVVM
Chain of HRAS wild-type protein (P01112 whole entry): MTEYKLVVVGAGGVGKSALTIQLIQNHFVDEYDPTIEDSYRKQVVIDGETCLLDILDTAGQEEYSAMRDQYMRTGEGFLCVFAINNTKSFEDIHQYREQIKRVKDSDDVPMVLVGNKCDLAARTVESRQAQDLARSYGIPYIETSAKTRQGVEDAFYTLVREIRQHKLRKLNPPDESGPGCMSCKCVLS

SMILES	HRAS /KRAS [1, 4]	IC50 [2]	NRAS /KRAS [3, 5]	other results
CC[C@H](C)[C@@H]1NC(=O)[C@H](CC)N(C)C(=O)C[C@@H](C)N(C)C(=O)[C@H](C2CCCC2)N(C)C(=O)C2(CCCC2)NC(=O)[C@@H]2CCCN2C(=O)[C@H](CCc2cc(F)c(C(F)(F)F)c(F)c2)NC(=O)CN(C)C(=O)[C@H](Cc2ccc(C(F)(F)F)cc2)N2CC/C=C\C[C@@H](C2=O)N(C)C(=O)CN(C)C1=O [PP1101]	B (a compound having 3 or more and less than 10 is denoted as B)	68.4 nM	B (a compound having 3 or more and less than 10 is denoted as B)	
CC[C@H](C)[C@@H]1NC(=O)[C@H](CC(C)C)N(C)C(=O)C[C@@H](C(=O)N2CCOCC2)N(C)C(=O)[C@H](C2CCCC2)N(C)C(=O)C2(CCCC2)NC(=O)[C@@H]2CCCN2C(=O)[C@H](CCc2ccc(C(F)(F)F)c(Cl)c2)NC(=O)CN(C)C(=O)[C@H](Cc2ccc(C)cc2)N2CC/C=C\C[C@@H](C2=O)N(C)C(=O)CN(C)C1=O [PP0461]		23.2 nM		HRAS /KRAS [1, 6]: A (a compound having 10 or more and less than 20 is denoted as A); NRAS /KRAS [3, 7]: A (a compound having 10 or more and less than 20 is denoted as A)
CC[C@H](C)[C@@H]1NC(=O)[C@H](CC)N(C)C(=O)C[C@@H](C(=O)N(C)C)N(C)C(=O)[C@H](C2CCCC2)N(C)C(=O)C2(CC(C)(C)C2)NC(=O)[C@@H]2C[C@H](C)CN2C(=O)[C@H](CCc2ccc(C(F)(F)F)c(OC)c2)NC(=O)CN(C)C(=O)[C@H](Cc2ccc(C)cc2)N2CC/C=C\C[C@@H](C2=O)N(C)C(=O)CN(C)C1=O [PP1836]		10.7 nM		HRAS /KRAS [1, 8]: B (a compound having 3 or more and less than 10 is denoted as B); NRAS /KRAS [3, 9]: A (a compound having 10 or more and less than 20 is denoted as A)
CCC[C@H]1C(=O)N[C@@H]([C@@H](C)CC)C(=O)N(C2CC2)CC(=O)N(C)[C@H]2C/C=C\CCN(C2=O)[C@@H](Cc2ccc(C)cc2)C(=O)N(C)CC(=O)N[C@@H](CCc2ccc(C(F)(F)F)c(OC)c2)C(=O)N2C[C@H](OCC)C[C@H]2C(=O)N(C)C2(CCC2)C(=O)N(C)[C@@H](C2CCCC2)C(=O)N(C)[C@H](C(=O)N2CCCCC2)CC(=O)N1C [PP3096]	A (a compound having 10 or more and less than 20 is denoted as A)	35.8 nM	A (a compound having 10 or more and less than 20 is denoted as A)	
CCCN1C(=O)[C@@H]2CCN2C(=O)CN(C2CC2)C(=O)[C@H]([C@@H](C)CC)NC(=O)[C@H](CC(C)C)N(C)C(=O)C[C@@H](C(=O)N2CCOCC2)N(C)C(=O)[C@H](C2CCCC2)N(C)C(=O)C2(CCCC2)NC(=O)[C@@H]2CCCN2C(=O)[C@H](CCc2ccc(C(F)(F)F)c(Cl)c2)NC(=O)CN(C)C(=O)[C@@H]1Cc1ccc(C(F)(F)F)cc1 [PP0273] ([NMeL]I[NcPrGly][Aze][NPrPhe(4-CF3)][Sar][hPhe(3-Cl-4-CF3)]P[Ac5c][NMeGly(cPent)][NMeD]-Morpholide; lactam N-11)	B (a compound having 3 or more and less than 10 is denoted as B)	12.2 nM	C (A compound having a KD ratio of 0.1 or more and less than 3 is denoted as C)	
CCO[C@@H]1C[C@H]2C(=O)NC3(CCC3)C(=O)N(C)[C@@H](C3CCCC3)C(=O)N(C)[C@H](C(=O)N3C[C@@H](C)O[C@@H](C)C3)CC(=O)N(C)[C@@H](CC(C)C)C(=O)N[C@@H]([C@@H](C)CC)C(=O)N(C)CC(=O)N(C)[C@H]3CCCCCN(C3=O)[C@@H](Cc3ccc(F)cc3)C(=O)N(C)CC(=O)N[C@@H](CCc3ccc(C(F)(F)F)c(Cl)c3)C(=O)N2C1 [PP1153]		15.5 nM		HRAS /KRAS [1, 10]: B (a compound having 3 or more and less than 10 is denoted as B); NRAS /KRAS [3, 11]: B (a compound having 3 or more and less than 10 is denoted as B)
CCO[C@@H]1C[C@H]2C(=O)NC3(CC(C)(C)C3)C(=O)N(C)[C@@H](C(CC)CC)C(=O)N(C)[C@H](C(=O)N(C)C)CC(=O)N(C)[C@@H](CC(C)C)C(=O)N[C@@H]([C@@H](C)CC)C(=O)N(C)CC(=O)N(C)[C@H]3C/C=C\CCN(C3=O)[C@@H](Cc3ccc(C(F)(F)F)cc3)C(=O)N(C)CC(=O)N[C@@H](CCc3ccc(Cl)c(Cl)c3)C(=O)N2C1 [PP2176]		52.9 nM		HRAS /KRAS [1, 6]: A (a compound having 10 or more and less than 20 is denoted as A); NRAS /KRAS [3, 7]: AA (a compound having 20 or more is denoted as AA)
CCCN(C)C(=O)[C@@H]1CC(=O)N(C)[C@@H](C(C)C)C(=O)N[C@@H]([C@@H](C)CC)C(=O)N(C)CC(=O)N(C)[C@H]2C/C=C\CCN(C2=O)[C@@H](Cc2ccc(C(F)(F)F)cc2)C(=O)N(C)CC(=O)N[C@@H](CCc2cc(F)c(C(F)(F)F)c(F)c2)C(=O)N2C[C@@H](C)C[C@H]2C(=O)NC2(CCC2)C(=O)N(C)[C@@H](C2CCCC2)C(=O)N1C [PP2079]		16 nM		HRAS /KRAS [1, 6]: A (a compound having 10 or more and less than 20 is denoted as A); NRAS /KRAS [3, 7]: A (a compound having 10 or more and less than 20 is denoted as A)
CCO[C@@H]1C[C@H]2C(=O)NC3(CCC3)C(=O)N(C)[C@@H](C3CCCC3)C(=O)N(C)[C@H](C(=O)N(C)C)CC(=O)N(C)[C@@H](Cc3cccc(Cl)c3)C(=O)N[C@@H]([C@@H](C)CC)C(=O)N(C)CC(=O)N(C)[C@H]3CCCCCN(C3=O)[C@@H](Cc3ccc(C(F)(F)F)cc3)C(=O)N(C)CC(=O)N[C@@H](CCc3cc(F)c(C(F)(F)F)c(F)c3)C(=O)N2C1 [PP0939]	B (a compound having 3 or more and less than 10 is denoted as B)	114 nM	B (a compound having 3 or more and less than 10 is denoted as B)	
CCCO[C@@H]1C[C@H]2C(=O)NC3(CC(C)(C)C3)C(=O)N(C)[C@@H](C3CCCC3)C(=O)N(C)[C@H](C(=O)N(C)C)CC(=O)N(C)[C@H]3CCCCc4ccc(cc4)C[C@@H](C(=O)N(C)CC(=O)N[C@@H](CCc4ccc(Cl)c(Cl)c4)C(=O)N2C1)N1CC/C=C\C[C@@H](C1=O)N(C)C(=O)CN(C)C(=O)[C@H]([C@@H](C)CC)NC3=O [PP3092]	A (a compound having 10 or more and less than 20 is denoted as A)	7.4 nM	A (a compound having 10 or more and less than 20 is denoted as A)	
CCO[C@@H]1C[C@H]2C(=O)NC3(CCC3)C(=O)N(C)[C@@H](C3CCCC3)C(=O)N(C)[C@H](C(=O)N(C)CCOC)CC(=O)N(C)[C@@H](CC)C(=O)N[C@@H]([C@@H](C)CC)C(=O)N(C)CC(=O)N(C)[C@H]3C/C=C\CCN(C3=O)[C@@H](Cc3ccc(C(F)(F)F)cc3)C(=O)N(C)CC(=O)N[C@@H](CCc3cc(F)c(C(F)(F)F)c(F)c3)C(=O)N2C1 [PP1316]		13.2 nM		HRAS /KRAS [1, 10]: A (a compound having 10 or more and less than 20 is denoted as A); NRAS /KRAS [3, 11]: A (a compound having 10 or more and less than 20 is denoted as A)
CC[C@H](C)[C@@H]1NC(=O)[C@H](CC(C)C)N(C)C(=O)C[C@@H](C(=O)N(CC)CC)N(C)C(=O)[C@H](C2CCCC2)N(C)C(=O)C2(CCC2)NC(=O)[C@@H]2C[C@H](C)CN2C(=O)[C@H](CCc2ccc(C(F)(F)F)c(OC)c2)NC(=O)CN(C)C(=O)[C@H](Cc2ccc(C)cc2)N2CC/C=C\C[C@@H](C2=O)N(C)C(=O)CN(C)C1=O [PP1885]		18.3 nM		HRAS /KRAS [1, 8]: A (a compound having 10 or more and less than 20 is denoted as A); NRAS /KRAS [3, 9]: AA (a compound having 20 or more is denoted as AA)
